In patent US8471063B2, “Michael systems as transglutaminase inhibitors” (Zedira GmbH, priority 2006, dated 2013) one finds IC50 data, which are given here for four molecules.

SMILES strings stand for the structures. *1 amine or outer side, *2 acyl side, *3 side chain or, on linkers, in order; H or OH if unused. Where a SMILES comes first, the peptide text is derived from it. [ ]: non-standard residue; d: D form. ξ: configuration not given here. X2 = COC(=O)/C=C/CC[C@H](N[*:1])C(=O)[*:2]; Ile(3ξ) = CCC(C)[C@H](N)C(=O)O Where only a bound is given, the exact number is not on record here.

The term IC50 denotes the point on the concentration scale where inhibition reaches its midpoint.

Holding throughout (assay type): biochemical
One experiment deals with T1, TG1 (Homo sapiens, UniProt P22735).
T1 sequence (P22735 1-817): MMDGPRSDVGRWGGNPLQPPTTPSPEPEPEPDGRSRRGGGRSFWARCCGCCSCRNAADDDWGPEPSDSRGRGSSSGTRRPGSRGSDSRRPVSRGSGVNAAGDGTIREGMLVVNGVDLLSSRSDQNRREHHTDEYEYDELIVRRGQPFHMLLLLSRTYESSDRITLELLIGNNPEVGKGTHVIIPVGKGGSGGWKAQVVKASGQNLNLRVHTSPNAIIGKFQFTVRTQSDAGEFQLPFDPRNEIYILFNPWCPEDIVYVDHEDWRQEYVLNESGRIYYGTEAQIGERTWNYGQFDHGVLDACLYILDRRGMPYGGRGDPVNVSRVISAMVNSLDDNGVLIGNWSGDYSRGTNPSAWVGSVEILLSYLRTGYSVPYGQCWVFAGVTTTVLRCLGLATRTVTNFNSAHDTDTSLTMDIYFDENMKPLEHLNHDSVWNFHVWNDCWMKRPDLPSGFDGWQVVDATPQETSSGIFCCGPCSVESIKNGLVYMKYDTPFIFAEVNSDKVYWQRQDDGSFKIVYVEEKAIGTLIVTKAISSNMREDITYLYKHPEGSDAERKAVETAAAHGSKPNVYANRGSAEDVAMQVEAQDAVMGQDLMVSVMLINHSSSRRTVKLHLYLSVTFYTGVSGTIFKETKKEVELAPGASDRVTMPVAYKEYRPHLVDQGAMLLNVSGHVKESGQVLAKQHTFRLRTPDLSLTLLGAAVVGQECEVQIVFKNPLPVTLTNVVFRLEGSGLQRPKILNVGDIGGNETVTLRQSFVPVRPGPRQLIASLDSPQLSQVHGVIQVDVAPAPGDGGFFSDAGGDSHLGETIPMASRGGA
Kind of experiment: Transglutaminase inhibition, IC50 at TG1.

In a further experiment the target is T2, FXIII (Homo sapiens, UniProt P00488).
T2 sequence (P00488 1-732): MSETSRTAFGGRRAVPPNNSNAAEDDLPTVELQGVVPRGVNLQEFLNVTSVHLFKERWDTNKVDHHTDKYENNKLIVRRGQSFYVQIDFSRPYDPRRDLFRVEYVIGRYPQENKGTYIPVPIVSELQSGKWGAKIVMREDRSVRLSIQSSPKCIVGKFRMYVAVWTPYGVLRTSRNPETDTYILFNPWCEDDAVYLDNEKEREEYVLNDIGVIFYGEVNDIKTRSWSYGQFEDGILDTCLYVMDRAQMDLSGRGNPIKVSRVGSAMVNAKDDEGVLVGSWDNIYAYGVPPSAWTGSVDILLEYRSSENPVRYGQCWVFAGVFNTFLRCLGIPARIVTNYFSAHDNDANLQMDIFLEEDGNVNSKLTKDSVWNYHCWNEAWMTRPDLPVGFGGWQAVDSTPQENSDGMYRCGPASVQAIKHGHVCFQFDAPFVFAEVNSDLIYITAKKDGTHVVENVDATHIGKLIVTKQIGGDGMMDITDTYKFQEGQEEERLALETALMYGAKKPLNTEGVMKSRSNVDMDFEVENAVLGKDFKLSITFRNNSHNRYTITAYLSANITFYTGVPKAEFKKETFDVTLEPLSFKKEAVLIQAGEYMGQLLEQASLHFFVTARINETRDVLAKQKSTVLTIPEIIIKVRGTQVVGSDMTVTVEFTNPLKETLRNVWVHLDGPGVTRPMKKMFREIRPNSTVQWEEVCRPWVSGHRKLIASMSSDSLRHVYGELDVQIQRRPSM
The experiment in a line: Transglutaminase inhibition, IC50 at FXIII.

For experiment [1], the target named is T3, recombinant human tissue transglutaminase (His6-rh-TG2) (Homo sapiens, UniProt P21980).
T3 sequence (P21980 1-687): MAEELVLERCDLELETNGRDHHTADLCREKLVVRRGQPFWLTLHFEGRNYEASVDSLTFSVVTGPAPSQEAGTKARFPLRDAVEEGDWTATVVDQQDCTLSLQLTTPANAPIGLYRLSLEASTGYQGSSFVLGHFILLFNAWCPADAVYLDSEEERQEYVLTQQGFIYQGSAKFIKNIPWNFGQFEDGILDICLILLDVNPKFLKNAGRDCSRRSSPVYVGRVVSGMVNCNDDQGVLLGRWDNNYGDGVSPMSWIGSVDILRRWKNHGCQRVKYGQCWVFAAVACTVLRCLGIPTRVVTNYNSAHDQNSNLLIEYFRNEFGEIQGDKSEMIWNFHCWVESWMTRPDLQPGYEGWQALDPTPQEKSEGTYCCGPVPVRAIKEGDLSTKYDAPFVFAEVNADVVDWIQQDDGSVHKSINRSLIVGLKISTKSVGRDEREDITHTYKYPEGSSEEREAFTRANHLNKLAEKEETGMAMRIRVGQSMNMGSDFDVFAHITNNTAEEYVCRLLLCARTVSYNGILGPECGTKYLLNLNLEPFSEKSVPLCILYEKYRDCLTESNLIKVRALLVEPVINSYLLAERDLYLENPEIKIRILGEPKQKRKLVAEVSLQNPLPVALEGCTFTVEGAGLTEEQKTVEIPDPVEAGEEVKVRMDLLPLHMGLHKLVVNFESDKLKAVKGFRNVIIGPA
The experiment in a line: Inactivation of human tissue transglutaminase, fluorescence assay, IC50. The conditions noted are these: 5 min preincubation, 37° C. The procedure: 250 μg of lyophilized his-tagged recombinant human tissue transglutaminase (His6-rh-TG2) are reconstituted by the addition of 150 μl of water (resulting buffer 50 mM of NaH2PO4, 150 mM of NaCl, pH=8).
A 10 mM inhibitor stock solution in DMSO is prepared and diluted with buffer (50 mM of Tris-HCl, 10 mM of CaCl2, 5 mM of DTT, pH=7.5, respectively) to the 20-fold of the concentration desired for the inhibition mixture (at least 1/50 dilution resulting in 2% DMSO concentration).
900 μl of an assay solution composed of 55.56 mM of Tris, 11.11 mM of CaCl2, 0.11% PEG8000, 5.56 mM of DTT, 5.56 mM of glycine methyl ester and 50 μM of Abz-APE(CAD-DNP)QEA-OH, (patent number:), pH=7.5 are placed in a cuvette and brought to a temperature of 37° C. in the measuring cell of a spectrophotometer. 50 μl of the respective inhibitor solution are added to said solution (resulting in a concentration of less than 0.2% of DMSO in the mixture).
7 μl of the transglutaminase solution reconstituted above are diluted with 51 μl of buffer (50 mM of Tris, 100 mM of NaCl, 5 mM of DTT, pH=7.5). 50 μl of said enzyme solution (10 μg His6-rhTG2) are added to the assay solution containing the respective inhibitor concentration. The mixture is incubated for 5 min at 37° C. before the measurement is performed. λexc=313 nm and λem=418 nm, 15 min)
The resulting enzyme activity was measured by analyzing the slope of the straight line obtained by the increase in fluorescence.
DMSO is used instead of inhibitor stock solution in order to determine the non-inhibited enzyme activity. IC50 values are determined by plotting the resulting enzyme activity against the logarithm of the inhibitor concentration. IC50 is defined as the concentration of an inhibitor at which enzyme activity is reduced to 50% after 5 min of preincubation.

As to `CC(C)CC(NC(=O)C1CCCCN1C(=O)C(Cc1ccccc1)NC(=O)C(CCC=CC(=O)OCc1ccccc1)NC(=O)OCc1ccccc1)C(N)=O` [Compound 3.2.8, N^α-benzyloxycarbonyl)-{[(E)-(L)-6-amino-hept-2-ene-dicarboxylic acid]-1-benzoyl}-L-phenylalaninyl-L-homoprolinyl-L-leucinyl amide], the 50% inhibitory concentration (IC50) against TG1 (Table 2) is 825 nM; on FXIII (Table 2), over 100000 nM; in experiment [1] (Table 2), 130 nM.
Regarding `CCOC(=O)C(=O)/C=C/CC[C@H](NC(=O)OCc1ccccc1)C(=O)N[C@@H](Cc1ccccc1)C(=O)OC` [Compound 3.2.9], the IC50 against TG1 (Table 2) was 530 nM; against FXIII (Table 2) it was over 100000 nM; in experiment [1] (Table 2), 3800 nM.
On to `COC(=O)/C=C/CC[C@H](NC(=O)[C@H](CC(N)=O)NC(C)=O)C(=O)N[C@@H](CCC(=O)O)C(=O)N[C@@H](C)C(=O)N[C@H](C(=O)OC)C(C)C` [Compound 7, N^α-acetyl-L-asparaginyl-{[(E)-(L)-6-amino-hept-2-ene-dicarboxylic acid]-1-methanoyl}-L-glutamyl-L-alaninyl-L-valine methyl ester] (Ac-N[X2]EAV-OMe), for which the values for the IC50 (at TG1 (Table 1); against FXIII (Table 1); in experiment [1] (Table 1)) were over 50000 nM, 2000 nM and over 50000 nM, respectively.
Regarding `CCC(C)[C@H](NC(=O)[C@@H](NC(=O)[C@H](CC(C)C)NC(=O)[C@H](CO)NC(=O)[C@H](CC/C=C/C(=O)OC)NC(=O)CNC(=O)[C@@H]1CCCN1C(=O)CNC(=O)[C@H](CC(C)C)NC(C)=O)C(C)C)C(=O)NCC(=O)OC` (stereo partly drawn) [Compound 8, N^α-acetyl-L-leucinyl-glycinyl-L-prolinyl-glycinyl-{[(E)-(L)-6-amino-hept-2-ene-dicarboxylic acid]-1-ethanoyl}-L-serinyl-L-leucinyl-L-valinyl-L-isoleucinyl-glycine methyl ester] (Ac-LGPG[X2]SLV[Ile(3ξ)]G-OMe), the half-maximal inhibitory concentration (IC50) at TG1 (Table 1) is over 50000 nM; against FXIII (Table 1), 500 nM; in experiment [1] (Table 1), over 50000 nM.
